Here are results for one substance from US11246899B2, “Urtica dioica extracts and methods of isolating urtica dioica extracts” (SynHiTech Inc., priority 2018, dated 2022).

The test system of the assay is Type 2 diabetic patients. Nature of the assay: Clinical study in Type 2 diabetic patients, blood glucose by glucometer and side effects. It is filed as in vivo, human. How it is done:
The effect of the Urdi-1 extract was tested on six Type 2 diabetic patients. The consents were filled by patients and were reviewed by the ethical committee of Tehran Hospital. The UD1-extract (20 mg of Urdi-1) was taken orally as one or two dosages per day. Blood glucose was measured by glucometer as fasted or after dining. After getting the promising data at the animal level, we tested the efficacy of Urdi-1 in Type 2 diabetic patients. Six patients (Patient I to VI) with high level of blood glucose consented to participate in the study (Table 2). These patients were selected different sex (male and female) with varying age ranging from mid forty to late sixty. As the level of the referral blood glucose and the medication administrated by their physicians were different data of each patient is presented individually.

The mark [1] stands for this setting: Patient I, after insulin two weeks then Glibenclamide and metformin for one month.
Setting [2] is: Patient IV, after insulin 17 days then Glibenclamide and metformin for two weeks.

For Glibenclamide and metformin, the fasting blood glucose result is, setting by setting: under setting [1], “about 175 mg/dL”; under setting [2], “about 90 mg/dL”. Moreover, the night blood glucose under setting [1] is given as roughly 225 mg/dL and the night blood glucose under setting [2] is roughly 220 mg/dL.
